Results: paper PMC13088243, “Quantifying Protein Homodimer Affinities and the Effect of Molecular Glues and Interface Residues Using Native Mass Spectrometry” (Journal of the American Chemical Society, 2026)
Several values for one entry are separate records, joined by “and”; a condition that tells them apart may be missing. Equal values may be shown once. Read-outs that look alike come from different tables or passages of the source.

T1: Tpx WT (Trypanosoma brucei brucei, UniProt O77404)
T1 sequence (O77404 1-144): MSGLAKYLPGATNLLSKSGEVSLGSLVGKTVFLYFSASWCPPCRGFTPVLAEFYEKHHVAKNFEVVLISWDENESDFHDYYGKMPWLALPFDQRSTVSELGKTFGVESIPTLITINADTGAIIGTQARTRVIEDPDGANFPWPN

B1: Tryparedoxin (protein)
chain: MSGLAKYLPGATNLLSKSGEVSLGSLVGKTVFLYFSASWCPPCRGFTPVLAEFYEKHHVAKNFEVVLISWDENESDFHDYYGKMPWLALPFDQRSTVSELGKTFGVESIPTLITINADTGAIIGTQARTRVIEDPDGANFPWPN

Assays:
Tpx WT [1] = target: T1, Tpx WT; assay: biochemical; format: binding; details: for rD,LILBID @ 1100 µm / rD,solution: Tpx WT with or without molecular glue; for rD,LILBID @ 1100 µm: from linear fits of dissociation plots; for rD,solution: from rD,LILBID with calibration factor f1100
Tpx WT [2] = target: T1, Tpx WT; set-up: method as in Schwegler et al., bioRxiv 2025; details: Tpx WT with molecular glue; previous dilution ITC; ref Schwegler et al., bioRxiv 2025; read-out: K D,ITC of Tpx homodimer; cited from earlier work
Tpx W39A = Tpx W39A (Trypanosoma brucei brucei, UniProt O77404, W39A); assay: biochemical; format: binding
Tpx W39A, sequence (O77404 whole entry W39A): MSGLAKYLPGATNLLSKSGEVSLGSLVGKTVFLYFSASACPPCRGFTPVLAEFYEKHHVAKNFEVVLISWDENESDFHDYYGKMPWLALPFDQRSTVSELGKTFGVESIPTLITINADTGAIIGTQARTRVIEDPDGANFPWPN

Tpx K102E [3] = target: T2, Tpx K102E (Trypanosoma brucei brucei, UniProt O77404, K102E); assay: biochemical; format: binding
T2 sequence (O77404 whole entry K102E): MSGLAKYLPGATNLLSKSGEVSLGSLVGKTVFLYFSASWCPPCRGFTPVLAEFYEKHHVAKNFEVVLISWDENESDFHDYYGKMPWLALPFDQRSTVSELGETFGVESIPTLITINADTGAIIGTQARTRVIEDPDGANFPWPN

Tpx K102A = Tpx K102A (Trypanosoma brucei brucei, UniProt O77404, K102A); assay: biochemical; format: binding
Tpx K102A, sequence (O77404 whole entry K102A): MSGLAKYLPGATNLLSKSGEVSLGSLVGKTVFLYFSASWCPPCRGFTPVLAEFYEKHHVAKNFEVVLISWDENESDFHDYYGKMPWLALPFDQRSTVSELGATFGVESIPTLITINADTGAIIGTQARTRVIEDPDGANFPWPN

Tpx K102E [4] = target: T2, Tpx K102E; set-up: method as in Schwegler et al., bioRxiv 2025; details: Tpx K102E with molecular glue; previous dilution ITC; ref Schwegler et al., bioRxiv 2025; read-out: K D,ITC of Tpx homodimer; cited from earlier work
BSA (Bos taurus) = BSA (Bos taurus) (UniProt P02769); details: cited from earlier work
Tryparedoxin = target: B1; assay: qLILBID-MS
qLILBID-MS = target: the molecule itself; assay: qLILBID-MS

Molecule	Kd (Tpx WT [1]) [µM]	rD,LILBID @ 1100 µm (Tpx WT [1])	rD,solution (Tpx WT [1])	Kd (Tpx WT [2]) [µM]	Kd (Tryparedoxin) [µM]	further results
O=c1[nH]c(CCl)nc2scc(-c3ccccc3)c12 [CPT]	16 ± 9	0.871 ± 0.033	0.568 ± 0.088	6 ± 2.2		
O=c1[nH]c(CCl)nc2scc(-c3ccc(C(F)(F)F)cc3)c12 [CtFT]	360 ± 110	0.983 ± 0.004	0.932 ± 0.017	410 ± 56		
O=c1[nH]c(CCl)nc2scc(-c3cccc(F)c3)c12 [meta-CFT]	6 ± 5	0.809 ± 0.058	0.420 ± 0.124	3.7 ± 1.5		
O=c1[nH]c(CCl)nc2scc(-c3ccccc3F)c12 [ortho-CFT]		0.897 ± 0.024	0.642 ± 0.072	32 ± 7		
O=c1[nH]c(CCl)nc2scc(-c3ccc(F)cc3)c12 [para-CFT, 2-(chloromethyl)-5-(4-fluorophenyl)thieno[2,3-d]pyrimidin-4(3H)-one]	5 ± 4	0.798 ± 0.048	0.398 ± 0.099	5.3 ± 1.9		Kd (Tpx W39A): 300 ± 110 µM; rD,LILBID @ 1100 µm (Tpx W39A; Tpx W39A with or without para-CFT): 0.980 ± 0.006; rD,solution (Tpx W39A; Tpx W39A with or without para-CFT, from rD,LILBID with f1100): 0.921 ± 0.023; Kd (Tpx K102E [3]): 70 ± 16 µM; rD,LILBID @ 1100 µm (Tpx K102E [3]; Tpx K102E with or without para-CFT): 0.942 ± 0.008; rD,solution (Tpx K102E [3]; Tpx K102E with or without para-CFT, from rD,LILBID with f1100): 0.782 ± 0.029; Kd (Tpx K102A; K D,LILBID of Tpx homodimer, Tpx K102A with para-CFT or none, ew 1100 μm, triplicate): 37 µM and 36 µM; rD,LILBID @ 1100 µm (Tpx K102A; Tpx K102A with or without para-CFT): 0.914 ± 0.027; rD,solution (Tpx K102A; Tpx K102A with or without para-CFT, from rD,LILBID with f1100): 0.692 ± 0.084; Kd (Tpx K102E [4]): 83 ± 32 µM
BSA (from UniProt P02769)						Kd (BSA (Bos taurus)): 10 µM
Tryparedoxin (protein, ortho-CFT covalently bound to C40) MSGLAKYLPGATNLLSKSGEVSLGSLVGKTVFLYFSASWCPPCRGFTPVLAEFYEKHHVAKNFEVVLISWDENESDFHDYYGKMPWLALPFDQRSTVSELGKTFGVESIPTLITINADTGAIIGTQARTRVIEDPDGANFPWPN					26	
Tryparedoxin (protein, para-CFT covalently bound to C40) MSGLAKYLPGATNLLSKSGEVSLGSLVGKTVFLYFSASWCPPCRGFTPVLAEFYEKHHVAKNFEVVLISWDENESDFHDYYGKMPWLALPFDQRSTVSELGKTFGVESIPTLITINADTGAIIGTQARTRVIEDPDGANFPWPN					5	
Tryparedoxin (protein, meta-CFT covalently bound to C40) MSGLAKYLPGATNLLSKSGEVSLGSLVGKTVFLYFSASWCPPCRGFTPVLAEFYEKHHVAKNFEVVLISWDENESDFHDYYGKMPWLALPFDQRSTVSELGKTFGVESIPTLITINADTGAIIGTQARTRVIEDPDGANFPWPN					6	
B1						Kd (qLILBID-MS): > 500 µM
Tryparedoxin (protein, CtFT covalently bound to C40) MSGLAKYLPGATNLLSKSGEVSLGSLVGKTVFLYFSASWCPPCRGFTPVLAEFYEKHHVAKNFEVVLISWDENESDFHDYYGKMPWLALPFDQRSTVSELGKTFGVESIPTLITINADTGAIIGTQARTRVIEDPDGANFPWPN					360	
Tryparedoxin (protein, CPT covalently bound to C40) MSGLAKYLPGATNLLSKSGEVSLGSLVGKTVFLYFSASWCPPCRGFTPVLAEFYEKHHVAKNFEVVLISWDENESDFHDYYGKMPWLALPFDQRSTVSELGKTFGVESIPTLITINADTGAIIGTQARTRVIEDPDGANFPWPN					16	
